Common to all, as to assay type: functional
One experiment relates to SK-MEL-28. Put plainly: Cytotoxicity against Homo sapiens (human) SK-MEL-28 cells assessed as growth inhibition at 10 uM after 48 hr by coulter counter analysis. Conditions: SK-MEL-28, 48 h, read-out: GI.
The subject of a further experiment is MDA-MB-435. Put plainly: Cytotoxicity against Homo sapiens (human) MDA-MB-435 cells assessed as growth inhibition at 10 uM after 48 hr by coulter counter analysis. Conditions: MDA-MB-435, 48 h, read-out: GI.
The test system of another experiment is M14. Put plainly: Cytotoxicity against Homo sapiens (human) M14 cells assessed as growth inhibition at 10 uM after 48 hr by coulter counter analysis. Conditions: M14, 48 h, read-out: GI.
In another experiment the test system is Malme-3M. The experiment in a line: Cytotoxicity against Homo sapiens (human) MALME-3M cells assessed as growth inhibition at 10 uM after 48 hr by coulter counter analysis. Conditions: read-out: GI.
The subject of another experiment is LOX IMVI. Put plainly: Cytotoxicity against Homo sapiens (human) LOXIMVI cells assessed as growth inhibition at 10 uM after 48 hr by coulter counter analysis. Conditions: read-out: GI.
For a further experiment, the system named is SF-295. The experiment in a line: Cytotoxicity against Homo sapiens (human) SF295 cells assessed as growth inhibition at 10 uM after 48 hr by coulter counter analysis. Conditions: SF-295, 48 h, read-out: GI.
The subject of the next experiment is OVCAR-4. The experiment in a line: Cytotoxicity against Homo sapiens (human) OVCAR4 cells assessed as growth inhibition at 10 uM after 48 hr by coulter counter analysis. Conditions: OVCAR-4, 48 h, read-out: GI.
Another experiment concerns UACC-62. The experiment in a line: Cytotoxicity against Homo sapiens (human) UACC62 cells assessed as growth inhibition at 10 uM after 48 hr by coulter counter analysis. Conditions: UACC-62, 48 h, read-out: GI.
The test system of another experiment is BT-549. Put plainly: Cytotoxicity against Homo sapiens (human) BT549 cells assessed as growth inhibition at 10 uM after 48 hr by coulter counter analysis. Conditions: BT-549, 48 h, read-out: GI.
Another experiment concerns MCF7. The experiment in a line: Cytotoxicity against Homo sapiens (human) MCF7 cells assessed as growth inhibition at 10 uM after 48 hr by coulter counter analysis. Conditions: MCF7, 48 h, read-out: GI.
In a further experiment the test system is DU-145. The experiment in a line: Cytotoxicity against Homo sapiens (human) DU145 cells assessed as growth inhibition at 10 uM after 48 hr by coulter counter analysis. Conditions: DU-145, 48 h, read-out: GI.
A further experiment concerns TK-10. The experiment in a line: Cytotoxicity against Homo sapiens (human) TK10 cells assessed as growth inhibition at 10 uM after 48 hr by coulter counter analysis. Conditions: TK-10, 48 h, read-out: GI.
In the next experiment the test system is ACHN. The experiment in a line: Cytotoxicity against Homo sapiens (human) ACHN cells assessed as growth inhibition at 10 uM after 48 hr by coulter counter analysis. Conditions: read-out: GI.
A further experiment concerns A498. The experiment in a line: Cytotoxicity against Homo sapiens (human) A498 cells assessed as growth inhibition at 10 uM after 48 hr by coulter counter analysis. Conditions: A498, 48 h, read-out: GI.
Another experiment concerns SK-OV-3. Put plainly: Cytotoxicity against Homo sapiens (human) SKOV3 cells assessed as growth inhibition at 10 uM after 48 hr by coulter counter analysis. Conditions: SK-OV-3, 48 h, read-out: GI.
Experiment [1] is described as follows: Cytotoxicity against Homo sapiens (human) NCI-ADR-RES cells assessed as growth inhibition at 10 uM after 48 hr by coulter counter analysis. Conditions: read-out: GI.
The test system of a further experiment is OVCAR-5. Put plainly: Cytotoxicity against Homo sapiens (human) OVCAR5 cells assessed as growth inhibition at 10 uM after 48 hr by coulter counter analysis. Conditions: OVCAR-5, 48 h, read-out: GI.
The next experiment concerns HL-60(TB). Put plainly: Cytotoxicity against Homo sapiens (human) HL-60(TB) cells assessed as growth inhibition at 10 uM after 48 hr by coulter counter analysis. Conditions: HL-60, 48 h, read-out: GI.
In the next experiment the test system is CCRF-CEM. Put plainly: Cytotoxicity against Homo sapiens (human) CCRF-CEM cells assessed as growth inhibition at 10 uM after 48 hr by coulter counter analysis. Conditions: read-out: GI.
For the next experiment, the system named is NCI-H522. The experiment in a line: Cytotoxicity against Homo sapiens (human) NCI-H522 cells assessed as growth inhibition at 10 uM after 48 hr by coulter counter analysis. Conditions: NCI-H522, 48 h, read-out: GI.
The test system of the next experiment is NCI-H460. Put plainly: Cytotoxicity against Homo sapiens (human) NCI-H460 cells assessed as growth inhibition at 10 uM after 48 hr by coulter counter analysis. Conditions: NCI-H460, 48 h, read-out: GI.
For a further experiment, the system named is NCI-H23. The experiment in a line: Cytotoxicity against Homo sapiens (human) NCI-H23 cells assessed as growth inhibition at 10 uM after 48 hr by coulter counter analysis. Conditions: NCI-H23, 48 h, read-out: GI.
The test system of a further experiment is HOP-92. Put plainly: Cytotoxicity against Homo sapiens (human) HOP92 cells assessed as growth inhibition at 10 uM after 48 hr by coulter counter analysis. Conditions: HOP-92, 48 h, read-out: GI.
Another experiment has as its system RPMI-8226. The experiment in a line: Cytotoxicity against Homo sapiens (human) RPMI8226 cells assessed as growth inhibition at 10 uM after 48 hr by coulter counter analysis. Conditions: RPMI-8226, 48 h, read-out: GI.

As for `COc1ccc(C2C3=C(CCCC3)Nc3ncn4nc(-c5ccccc5)nc4c32)cc1OC` (configuration not stated), the inhibition of growth at 10 µM with SK-MEL-28 is under 10%; with MDA-MB-435, under 10%; with M14, under 10%; with Malme-3M it was under 10%; in the experiment with LOX IMVI, under 10%; in the experiment on SF-295, 29.6%. Further, the inhibition of growth at 10 µM with OVCAR-4, in the experiment with UACC-62, in the experiment on BT-549, in the experiment on MCF7, in the experiment on DU-145 and in the experiment with TK-10 was under 10% each time. For the same compound, the inhibition of growth at 10 µM was 20% with ACHN; 53.6% in the experiment on A498; under 10% in the experiment with SK-OV-3; under 10% in experiment [1]; 11.7% in the experiment with OVCAR-5; under 10% with HL-60(TB). Also, the inhibition of growth at 10 µM in the experiment with CCRF-CEM is under 10%; in the experiment on NCI-H522, 31.4%; with NCI-H460, under 10%; in the experiment on NCI-H23 it was 10.7%; with HOP-92, 36.8%; with RPMI-8226, 10.5%.

Turning to `COc1ccc(C2C3=C(CCCC3)Nc3nc(CC#N)[nH]c(=O)c32)cc1OC` (configuration not stated), the inhibition of growth at 10 µM in the experiment with SK-MEL-28, with MDA-MB-435, with M14, in the experiment with Malme-3M, in the experiment with LOX IMVI and in the experiment on SF-295 was under 10% throughout. In addition, the inhibition of growth at 10 µM in the experiment on OVCAR-4, in the experiment with UACC-62, with BT-549, in the experiment on MCF7, in the experiment with DU-145 and with TK-10 was under 10% throughout. Further, the inhibition of growth at 10 µM (with ACHN; in the experiment with A498; in the experiment on SK-OV-3; in [1]; in the experiment with OVCAR-5; in the experiment on HL-60(TB)) was under 10% throughout. For the same compound, the inhibition of growth at 10 µM in the experiment with CCRF-CEM, in the experiment with NCI-H522, with NCI-H460, in the experiment on NCI-H23, in the experiment with HOP-92 and in the experiment on RPMI-8226 was under 10% in each case.

As to `COc1ccc(C2C3=C(CCCC3)Nc3nn[nH]c(=O)c32)cc1OC` (configuration not stated), the inhibition of growth at 10 µM with SK-MEL-28, with MDA-MB-435, in the experiment on M14, in the experiment with Malme-3M, with LOX IMVI and in the experiment on SF-295 was under 10% in each case. Moreover, the inhibition of growth at 10 µM was under 10% with OVCAR-4; 14.3% with UACC-62; under 10% in the experiment on BT-549; under 10% in the experiment on MCF7; under 10% in the experiment with DU-145; under 10% with TK-10. For the same compound, the inhibition of growth at 10 µM in the experiment with ACHN is 16%; in the experiment on A498, 13.2%; in the experiment on SK-OV-3, under 10%; in experiment [1], under 10%; in the experiment with OVCAR-5, 12.6%; with HL-60(TB) it was under 10%. Also, the inhibition of growth at 10 µM in the experiment on CCRF-CEM was under 10%; in the experiment with NCI-H522, under 10%; in the experiment with NCI-H460 it was under 10%; in the experiment on NCI-H23, under 10%; in the experiment on HOP-92 it was 13.3%; in the experiment with RPMI-8226, under 10%.

These data come from ChEMBL document CHEMBL3045802, “Synthesis and in vitro antitumor activity of new quinoline, pyrimido[4,5-b]quinoline, [1,2,3]triazino[4,5-b]quinoline, and [1,2,4]triazolo[2,3:3,4]pyrimido[6,5-b]quinoline analogs” (2013).
